Assay [1] addresses T1, GcoA-F169A (Amycolatopsis sp., UniProt P0DPQ7, F169A/H210Q).
T1 construct: GST (N, cleaved yes); made in house; host or cells: E. coli Rosetta 2 (DE3)
The assay is described as follows: Substrate dissociation constant (KD) by UV/vis spin-state titration. In kind it is binding. Here is the method: Guaiacol (FIG. 1A) caused the Soret peak (λ=417 nm) of GcoA-F169A to shift to 387 nm, indicating the conversion of a low-spin to a high-spin species. Syringol (FIG. 1B) caused the Soret peak (λ=417 nm) of GcoA-F169A to shift to 387 nm, indicating the conversion of a low-spin to a high-spin species. 3MC (FIG. 1C) caused the Soret peak (λ=417 nm) of GcoA-F169A to shift to 387 nm, indicating the conversion of a low-spin to a high-spin species. 0-60 μM substrate was titrated into a solution containing 3 μM GcoA-F169A and air-saturated buffer (25 mM HEPES, 50 mM NaCl, pH 7.5, 25° C.) and the spectra monitored until there was no more change, indicating saturation. The solution reached equilibrium prior to each substrate addition. […] Error bars represent ±1 standard deviation of two or more runs.
Zero to 60 μM of guaiacol, syringol, or 3MC in 0.5 or 1 μM aliquots, were titrated into a cuvette containing 3 μM F169A GcoA in 25 mM HEPES, 50 mM NaCl, pH 7.5. The spectrum after each substrate addition was recorded, beginning with no substrate bound. The solution reached equilibrium before the next addition. A difference spectrum was made to illustrate the shift from a low-spin aquo-heme complex to the high-spin substrate-bound complex (spectral shift from 417 nm to 388 nm). […] The absorbance at 388 nm (AbS388-417 nm) was plotted as a function of [substrate], yielding a quadratic curve that was fit to equation (5) to determine the KD.
Where L0, Et, KD, and ΔAbsmax are the ligand concentrations, total protein (subunit) concentration, the equilibrium dissociation constant, and the maximum AbS388-417nm, respectively. Reported values are the average of 2 or more measurements.

The target of assay [2] is T1, GcoA-F169A. The assay is described as follows: Rate of NADH disappearance (UV/vis) with each substrate. The class given is biochemical. Conditions: GcoA-F169A with the named substrate. How it is done:
To address whether guaiacol and/or syringol would serve as substrates of GcoA-F169A, the disappearance of NADH (UV/vis) and aromatic substrate (HPLC) was monitored over time (FIG. 1). The rates of organic substrate and NADH consumption were robust and the same within error, regardless of whether guaiacol or syringol was used (5.3±0.3 μM guaiacol s^−1 μmol GcoA-F169A^−1, 5.8±0.8 μM NADH s^−1 μmol GcoA-F169A-1; 4.1±0.3 μM syringol s^−1 μmol GcoA-F169A^−1, 5.1±0.8 μM NADH s^−1 μmol GcoA-F169A^−1).
Steady state kinetics of F169A. 0.2 μM each of F169A GcoA and GcoB were dissolved in air-saturated buffer (25 mM HEPES, 50 mM NaCl) in a cuvette at pH 7.5, 25° C. 100 μg/mL catalase was added to each reaction to capture any H2O2 formed during the uncoupled reaction. A saturating amount of NADH (≥5 KM, 300 μM) was added and a background rate of NADH oxidation in air (about 210 μM O2) recorded via continuous scanning of the UV/vis spectrum (Varian Cary 50). 20-300 μM guaiacol or syringol 2-20 mM stock dissolved in DMSO was added and the reaction was monitored via measurement of UV/vis spectra for several minutes. The initial velocity was determined by disappearance of the characteristic NADH absorbance at 340 nm ([…]=6.22 mM^−1 cm^−1). A plot of vi versus the concentration of guaiacol was fit to equation 4 to obtain kcat, KM, and kcat/KM. For specific activity determination, the above method was used but with saturating (300 μM) guaiacol, syringol, or 3-methoxycatechol (3MC), and in the presence of all F169 GcoA mutants (A, H, S, V, I, L). The linear portion of the concentration of NADH versus time was fit and referenced to the amount of GcoA used (0.2 μM). Reported values are the average of at least 3 measurements and reported errors are standard deviations. vi=Vmax[S]/(KM+[S]) Equation (4): […]

T1 sequence (P0DPQ7 whole entry F169A/H210Q): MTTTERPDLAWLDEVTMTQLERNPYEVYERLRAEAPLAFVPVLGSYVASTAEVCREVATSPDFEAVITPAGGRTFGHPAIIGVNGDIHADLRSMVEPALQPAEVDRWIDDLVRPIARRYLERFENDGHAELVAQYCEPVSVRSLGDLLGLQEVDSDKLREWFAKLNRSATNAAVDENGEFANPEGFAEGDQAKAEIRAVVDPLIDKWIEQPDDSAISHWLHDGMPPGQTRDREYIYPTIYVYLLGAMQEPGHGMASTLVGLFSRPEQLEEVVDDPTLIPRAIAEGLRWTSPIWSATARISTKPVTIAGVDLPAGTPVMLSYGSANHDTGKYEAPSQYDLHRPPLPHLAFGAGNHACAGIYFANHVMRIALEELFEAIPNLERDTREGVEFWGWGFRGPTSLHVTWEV

Turning to `COc1cccc(O)c1O` [3MC, 3-methoxycatechol], the Kd (commonly a measure of binding affinity in units of concentration) in assay [1] came to 9.5 ± 0.02 µM. For the same molecule, the “Rate of NADH consumption (UV/vis)” value in assay [2] is reported as 5.6±0.8 μM NADH s^−1 μmol GcoA-F169A^−1.

In the case of `COc1ccccc1O` [guaiacol, 2-methoxyphenol], binding in assay [1] was put at a Kd of 7.1 ± 0.1 µM. In addition, the “Rate of NADH consumption (UV/vis)” value in assay [2] was 5.8±0.8 μM NADH s^−1 μmol GcoA-F169A^−1.

Molecule `COc1cccc(OC)c1O` [syringol, 2,6-dimethoxyphenol] registered a Kd in assay [1] of 1.7 ± 0.07 µM. The “Rate of NADH consumption (UV/vis)” value in assay [2] is 5.1±0.8 μM NADH s^−1 μmol GcoA-F169A^−1.

Source of the values: US11208642B2, “Microbial syringol utilization” (Alliance for Sustainable Energy, LLC, priority 2018, dated 2021).
